Laboratory results from patent US20240246913A1, “2-CARBOXYL-INDOLE INHIBITORS OF METALLO-BETA-LACTAMASES” (Oxford University Innovation Limited, priority 2021, published 2024).

How the values were obtained:
NDM-1 = NDM-1 (Klebsiella pneumoniae, UniProt C7C422); assay: MBL inhibition, FC-5 fluorescence assay, NDM-1; type: biochemical; settings: FC-5 cephalosporin substrate, fluorescence; ranges of obtained pIC50; read-out: pIC50 NDM-1 (converted)
Description: (§1) Inhibitors were tested using a panel of the clinically relevant B1 MBLs (NDM-1, VIM-1, -2 and IMP-1). Activities were assayed by monitoring the release of a fluorophore following the enzymatic breakdown of the cephalosporin FC-5 (https://pubs.acs.org/doi/abs/10.1021/jm400769b). FC-5 assays were conducted in clear bottomed 384 black well microplates (Greiner); the initial rate of reaction was assessed by monitoring the fluorescence intensity (λex=380 nm and λem=460 nm) using a Pherstar FS (BMG LabTech) plate reader. Initial rates of reaction were determined and dose-response analyses conducted in GraphPad Prism. Dose-response curves were fitted using the log(inhibitor) vs normalized response—variable slope model of GraphPad Prism 12. Each concentration point for routine screening was conducted with 4 intra-plate replicates.

Escherichia coli NDM-1 = assay: Antibiotic susceptibility testing (MIC), EC NDM-1; type: cell-based; settings: agar or broth dilution (CLSI/EUCAST)
Description: (§2) Antibiotic susceptibility testing was performed using the agar or broth dilution method, in line with the Clinical and Laboratory Standards Institute (CLSI) and European Committee on Antimicrobial Susceptibility Testing (EUCAST) requirements.

[1] = Plasma protein binding, equilibrium dialysis, human plasma; type: in vitro ADME; settings: pH 7.4, equilibrium dialysis (RED) 4 hours at 37° C., read-out: Plasma protein binding, fu, Human
Description: The fraction of unbound compound (fu) in plasma from human or other animal species was determined by equilibrium dialysis at 37° C. for 4 hours using the Rapid Equilibrium Dialysis (RED) device (ThermoFisher Scientific). The test compound at a concentration of 10 μM was added to plasma and dialyzed against isotonic phosphate buffer (67 mM, pH 7.4) over 4 hours at 37° C. After dialysis, compound concentrations in buffer and plasma were quantified by LC-MS/MS. In parallel the stability of the compound in plasma was determined by incubating drug-spiked plasma (10 μM) at 37° C. for 4 hours, meanwhile the control plasma sample was kept in the freezer. The concentration of the compound in both samples was quantified by LC-MS/MS (Waters Corp, Milford, MA, USA).

Escherichia coli NDM-7 = assay: Antibiotic susceptibility testing (MIC), EC NDM-7; type: cell-based; settings: agar or broth dilution (CLSI/EUCAST)
Description: as §2

VIM-1 = VIM-1 (Pseudomonas aeruginosa, UniProt A0A0F7KYQ8); assay: MBL inhibition, FC-5 fluorescence assay, VIM-1; type: biochemical; settings: FC-5 cephalosporin substrate, ranges of obtained pIC50, read-out: pIC50 VIM-1 (converted)
Description: as §1

VIM-2 = VIM-2 (Escherichia coli, UniProt Q5U7L7); assay: MBL inhibition, FC-5 fluorescence assay, VIM-2; type: biochemical; settings: FC-5 cephalosporin substrate, ranges of obtained pIC50, read-out: pIC50 VIM-2 (converted)
Description: as §1

[2] = test system: Acinetobacter baumannii NDM-1; assay: Antibiotic susceptibility testing (MIC), AB NDM-1; type: cell-based; settings: agar or broth dilution (CLSI/EUCAST)
Description: as §2

IMP-1 = IMP-1 (Serratia marcescens, UniProt P52699); assay: MBL inhibition, FC-5 fluorescence assay, IMP-1; type: biochemical; settings: FC-5 cephalosporin substrate, fluorescence; ranges of obtained pIC50; read-out: pIC50 IMP-1 (converted)
Description: as §1

NDM-1, sequence (C7C422 29-270, looked up, species assumed): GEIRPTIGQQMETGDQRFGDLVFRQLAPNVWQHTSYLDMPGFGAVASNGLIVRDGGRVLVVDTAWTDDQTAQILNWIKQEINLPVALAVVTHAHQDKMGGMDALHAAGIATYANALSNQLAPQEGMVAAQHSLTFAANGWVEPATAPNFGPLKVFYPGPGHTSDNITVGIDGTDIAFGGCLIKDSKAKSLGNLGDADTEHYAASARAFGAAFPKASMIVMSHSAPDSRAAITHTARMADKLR
IMP-1, sequence (P52699 19-246, looked up, species assumed): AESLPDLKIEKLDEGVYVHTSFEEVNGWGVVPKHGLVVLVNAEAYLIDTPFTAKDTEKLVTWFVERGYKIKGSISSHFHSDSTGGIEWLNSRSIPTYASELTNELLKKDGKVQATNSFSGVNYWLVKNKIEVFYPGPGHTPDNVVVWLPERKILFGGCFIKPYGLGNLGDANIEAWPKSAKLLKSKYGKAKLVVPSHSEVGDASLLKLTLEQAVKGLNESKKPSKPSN

| Compound | IC50 (NDM-1) | MIC values EC NDM-1 (Escherichia coli NDM-1) | fraction unbound at 4 h, 10 μM [1] | MIC values EC NDM-7 (Escherichia coli NDM-7) | IC50 (VIM-1) | IC50 (VIM-2) | MIC values AB NDM-1 [2] | IC50 (IMP-1) |
| --- | --- | --- | --- | --- | --- | --- | --- | --- |
| COc1cc(-c2c(C(=O)O)[nH]c3c([C@H](C)N4C[C@]5(C[C@@H](CN)C5)OC4=O)cccc23)cnc1O [IC-25, 7-((S)-1-((2S,4r)-2-(aminomethyl)-6-oxo-5-oxa-7-azaspiro[3.4]octan-7-yl)ethyl)-3-(6-hydroxy-5-methoxypyridin-3-yl)-1H-indole-2-carboxylic acid] | > 10 nM | C (C = MIC values > 8) | > 0.25 | B (B MIC values 2 ÷ 8) | > 10 nM | 0.1 to 1 nM | C (C = MIC values > 8) | > 10 nM |
| C[C@@H](c1cccc2c(-c3c[nH]c(=O)c(F)c3)c(C(=O)O)[nH]c12)N1C[C@]2(C[C@@H](CN)C2)OC1=O [IC-26, 7-((1S)-1-(2-(aminomethyl)-6-oxo-5-oxa-7-azaspiro[3.4]octan-7-yl)ethyl)-3-(5-fluoro-6-oxo-1,6-dihydropyridin-3-yl)-1H-indole-2-carboxylic acid] | 1 to 10 nM | B (B MIC values 2 ÷ 8) | 0.05 to 0.25 | A (A = MIC values ≤ 1) | > 10 nM | 0.1 to 1 nM | C (C = MIC values > 8) | > 10 nM |
| COc1ncc(-c2c(C(=O)O)[nH]c3c([C@H](C)N4C[C@]5(C[C@@H](CN)C5)OC4=O)cccc23)cc1O [IC-27, (S)-7-(1-(2-(aminomethyl)-6-oxo-5-oxa-7-azaspiro[3.4]octan-7-yl)ethyl)-3-(5-hydroxy-6-methoxypyridin-3-yl)-1H-indole-2-carboxylic acid] | 0.1 to 1 nM | B (B MIC values 2 ÷ 8) | 0.05 to 0.25 | A (A = MIC values ≤ 1) | 1 to 10 nM | < 0.1 nM | B (B MIC values 2 ÷ 8) | > 10 nM |
| C[C@@H](c1cccc2c(-c3cnn(C)c(=O)c3)c(C(=O)O)[nH]c12)N1C[C@]2(C[C@@H](CN)C2)OC1=O [IC-28, 7-((S)-1-((2S,4r)-2-(aminomethyl)-6-oxo-5-oxa-7-azaspiro[3.4]octan-7-yl)ethyl)-3-(1-methyl-6-oxo-1,6-dihydropyridazin-4-yl)-1H-indole-2-carboxylic acid] | 1 to 10 nM | B (B MIC values 2 ÷ 8) | 0.05 to 0.25 | A (A = MIC values ≤ 1) | 1 to 10 nM | 0.1 to 1 nM | C (C = MIC values > 8) | > 10 nM |
| C[C@@H](c1cccc2c(-c3cnc(O)c(O)c3)c(C(=O)O)[nH]c12)N1C[C@]2(C[C@@H](CN)C2)OC1=O [IC-29, 7-((S)-1-((2S,4r)-2-(aminomethyl)-6-oxo-5-oxa-7-azaspiro[3.4]octan-7-yl)ethyl)-3-(5,6-dihydroxypyridin-3-yl)-1H-indole-2-carboxylic acid] | > 10 nM | B (B MIC values 2 ÷ 8) | 0.005 to 0.05 | A (A = MIC values ≤ 1) | > 10 nM | 1 to 10 nM | C (C = MIC values > 8) | > 10 nM |
| C[C@@H](c1cccc2c(-c3ccn(C)c(=O)c3)c(C(=O)O)[nH]c12)N1C[C@]2(C[C@@H](CN)C2)OC1=O [IC-32, 3-(1-methyl-2-oxo-1,2-dihydropyridin-4-yl)-7-[(1S)-1-[(2r,4r)-2-(aminomethyl)-6-oxo-5-oxa-7-azaspiro[3.4]octan-7-yl]ethyl]-1H-indole-2-carboxylic acid] | 0.1 to 1 nM | B (B MIC values 2 ÷ 8) | > 0.25 | A (A = MIC values ≤ 1) | 1 to 10 nM | 0.1 to 1 nM | B (B MIC values 2 ÷ 8) | > 10 nM |
| C[C@@H](c1cccc2c(-c3cn[nH]c(=O)c3)c(C(=O)O)[nH]c12)N1C[C@]2(C[C@@H](CN)C2)OC1=O [IC-33, 3-(6-oxo-1,6-dihydropyridazin-4-yl)-7-[(1S)-1-[(2r,4r)-2-(aminomethyl)-6-oxo-5-oxa-7-azaspiro[3.4]octan-7-yl]ethyl]-1H-indole-2-carboxylic acid] | 1 to 10 nM | A (A = MIC values ≤ 1) | 0.05 to 0.25 | A (A = MIC values ≤ 1) | 1 to 10 nM | 0.1 to 1 nM | B (B MIC values 2 ÷ 8) | > 10 nM |
| C[C@@H](c1cccc2c(-c3ccc(CS(C)(=N)=O)c(F)c3)c(C(=O)O)[nH]c12)n1cc(CN2CC(N)C2)oc1=O (stereo partly drawn) [IC-53, 7-[(1S)-1-{5-[(3-aminoazetidin-1-yl)methyl]-2-oxo-2,3-dihydro-1,3-oxazol-3-yl}ethyl]-3-(3-fluoro-4-{[imino(methyl)oxo-λ^6-sulfanyl]methyl}phenyl)-1H-indole-2-carboxylic acid] | < 0.1 nM | A (A = MIC values ≤ 1) | – | A (A = MIC values ≤ 1) | 1 to 10 nM | 1 to 10 nM | B (B MIC values 2 ÷ 8) | > 10 nM |
| C[C@@H](c1cccc2c(-c3ccc(CS(C)(=O)=O)c(F)c3)c(C(=O)O)[nH]c12)N1CC2(CNC2)OC1=O [IC-65, (S)-3-(3-fluoro-4-((methylsulfonyl)methyl)phenyl)-7-(1-(6-oxo-5-oxa-2,7-diazaspiro[3.4]octan-7-yl)ethyl)-1H-indole-2-carboxylic acid] | 0.1 to 1 nM | A (A = MIC values ≤ 1) | – | A (A = MIC values ≤ 1) | 1 to 10 nM | 0.1 to 1 nM | B (B MIC values 2 ÷ 8) | > 10 nM |
| C/C(=C\C(=O)NCCc1c[nH]cn1)c1cccc2c(-c3ccc(CS(C)(=O)=O)c(F)c3)c(C(=O)O)[nH]c12 [IC-103, 3-[3-Fluoro-4-(methanesulfonylmethyl)phenyl]-7-[(1E)-1-{[2-(1H-imidazol-4-yl)ethyl]carbamoyl}prop-1-en-2-yl]-1H-indole-2-carboxylic acid] | > 10 nM | C (C = MIC values > 8) | – | C (C = MIC values > 8) | > 10 nM | > 10 nM | C (C = MIC values > 8) | > 10 nM |
| C/C(=C\C(=O)N1CCOCC1)c1cccc2c(-c3ccc(CS(C)(=O)=O)c(F)c3)c(C(=O)O)[nH]c12 [IC-105, 3-[3-Fluoro-4-(methanesulfonylmethyl)phenyl]-7-[(2E)-4-(morpholin-4-yl)-4-oxobut-2-en-2-yl]-1H-indole-2-carboxylic acid] | > 10 nM | C (C = MIC values > 8) | – | C (C = MIC values > 8) | > 10 nM | > 10 nM | C (C = MIC values > 8) | > 10 nM |
| C=C(CC(=O)NCCc1c[nH]cn1)c1cccc2c(-c3ccc(CS(C)(=O)=O)c(F)c3)c(C(=O)O)[nH]c12 [IC-106, 7-(4-((2-(1H-Imidazol-4(5)-yl)ethyl)amino)-4-oxobut-1-en-2-yl)-3-(3-fluoro-4-((methylsulfonyl)-methyl)phenyl)-1H-indole-2-carboxylic acid] | > 10 nM | C (C = MIC values > 8) | – | C (C = MIC values > 8) | > 10 nM | > 10 nM | C (C = MIC values > 8) | > 10 nM |
